Patent US20070036839A1, “Phosphorylated glucomannane polysaccharides containing 1-6 and 1-2 linkages increase weight gain in poultry” (priority 2005, published 2007)
One block for each substance: values may come before it.

Legend:
macrophages = conditions: single low dose by intramuscular injection; cited from earlier work
[1] = Weekly hematology (CBC with differential); type: in vivo, Male Ross x Ross broiler chickens; as to Red Blood Cells HCT: test concentration or dose not given here; as to White Blood Cells BASO: test concentration or dose not given here; as to White Blood Cells EOS: test concentration or dose not given here; as to White Blood Cells LYMP + MONO: test concentration or dose not given here; as to White Blood Cells NEUT: test concentration or dose not given here; as to White Blood Cells WBC: test concentration or dose not given here

Substance: Acemannan [ACM 1]
activation of macrophages (macrophages): systemic immuno-modulated activation of macrophages

Others Het/Poly ([1]; Day 3, dose group 1): 19.75%
Red Blood Cells HCT ([1]; Day 3, dose group 1): 30.67%
White Blood Cells BASO ([1]; Day 3, dose group 1): 127.50 X/uL
White Blood Cells EOS ([1]; Day 3, dose group 1): 0.00 X/uL
White Blood Cells LYMP + MONO ([1]; Day 3, dose group 1): 2590.00 X/uL
White Blood Cells NEUT ([1]; Day 3, dose group 1): 782.50 X/uL
White Blood Cells WBC ([1]; Day 3, dose group 1): 3000 µL⁻¹
Others Het/Poly ([1]; Day 3, dose group 3): 31.67%
Red Blood Cells HCT ([1]; Day 3, dose group 3): 27.80%
White Blood Cells BASO ([1]; Day 3, dose group 3): 45.00 X/uL
White Blood Cells EOS ([1]; Day 3, dose group 3): 0.00 X/uL
White Blood Cells LYMP + MONO ([1]; Day 3, dose group 3): 2060.00 X/uL
White Blood Cells NEUT ([1]; Day 3, dose group 3): 1061.67 X/uL
White Blood Cells WBC ([1]; Day 3, dose group 3): 3170 µL⁻¹
Others Het/Poly ([1]; Day 3, dose group 20): 27.00%
Red Blood Cells HCT ([1]; Day 3, dose group 20): 27.00%
White Blood Cells BASO ([1]; Day 3, dose group 20): 16.00 X/uL
White Blood Cells EOS ([1]; Day 3, dose group 20): 16.00 X/uL
White Blood Cells LYMP + MONO ([1]; Day 3, dose group 20): 2950.00 X/uL
White Blood Cells NEUT ([1]; Day 3, dose group 20): 818.00 X/uL
White Blood Cells WBC ([1]; Day 3, dose group 20): 3800 µL⁻¹
Others Het/Poly ([1]; Day 7, dose group 1): 45.00%
White Blood Cells BASO ([1]; Day 7, dose group 1): 0.00 X/uL
White Blood Cells EOS ([1]; Day 7, dose group 1): 0.00 X/uL
White Blood Cells LYMP + MONO ([1]; Day 7, dose group 1): 5500.00 X/uL
White Blood Cells NEUT ([1]; Day 7, dose group 1): 4500.00 X/uL
White Blood Cells WBC ([1]; Day 7, dose group 1): 10000 µL⁻¹
Others Het/Poly ([1]; Day 7, dose group 3): 19.67%
White Blood Cells BASO ([1]; Day 7, dose group 3): 146.67 X/uL
White Blood Cells EOS ([1]; Day 7, dose group 3): 0.00 X/uL
White Blood Cells LYMP + MONO ([1]; Day 7, dose group 3): 5273.33 X/uL
White Blood Cells NEUT ([1]; Day 7, dose group 3): 1246.67 X/uL
White Blood Cells WBC ([1]; Day 7, dose group 3): 6670 µL⁻¹
Others Het/Poly ([1]; Day 7, dose group 20): 33.00%
White Blood Cells BASO ([1]; Day 7, dose group 20): 180.00 X/uL
White Blood Cells EOS ([1]; Day 7, dose group 20): 0.00 X/uL
White Blood Cells LYMP + MONO ([1]; Day 7, dose group 20): 4513.33 X/uL
White Blood Cells NEUT ([1]; Day 7, dose group 20): 2306.67 X/uL
White Blood Cells WBC ([1]; Day 7, dose group 20): 7000 µL⁻¹
Others Het/Poly ([1]; Day 15, dose group 1): 37.00%
Red Blood Cells HCT ([1]; Day 15, dose group 1): 32.00%
White Blood Cells BASO ([1]; Day 15, dose group 1): 266.67 X/uL
White Blood Cells EOS ([1]; Day 15, dose group 1): 0.00 X/uL
White Blood Cells LYMP + MONO ([1]; Day 15, dose group 1): 6963.33 X/uL
White Blood Cells NEUT ([1]; Day 15, dose group 1): 4436.67 X/uL
White Blood Cells WBC ([1]; Day 15, dose group 1): 11670 µL⁻¹
Others Het/Poly ([1]; Day 15, dose group 3): 30.67%
Red Blood Cells HCT ([1]; Day 15, dose group 3): 29.00%
White Blood Cells BASO ([1]; Day 15, dose group 3): 406.67 X/uL
White Blood Cells EOS ([1]; Day 15, dose group 3): 0.00 X/uL
White Blood Cells LYMP + MONO ([1]; Day 15, dose group 3): 8000.00 X/uL
White Blood Cells NEUT ([1]; Day 15, dose group 3): 3926.67 X/uL
White Blood Cells WBC ([1]; Day 15, dose group 3): 12330 µL⁻¹
Others Het/Poly ([1]; Day 15, dose group 20): 31.67%
Red Blood Cells HCT ([1]; Day 15, dose group 20): 24.33%
White Blood Cells BASO ([1]; Day 15, dose group 20): 180.00 X/uL
White Blood Cells EOS ([1]; Day 15, dose group 20): 0.00 X/uL
White Blood Cells LYMP + MONO ([1]; Day 15, dose group 20): 5213.33 X/uL
White Blood Cells NEUT ([1]; Day 15, dose group 20): 2606.67 X/uL
White Blood Cells WBC ([1]; Day 15, dose group 20): 8000 µL⁻¹
Others Het/Poly ([1]; Day 21, dose group 1): 28.33%
Red Blood Cells HCT ([1]; Day 21, dose group 1): 30.33%
White Blood Cells BASO ([1]; Day 21, dose group 1): 630.00 X/uL
White Blood Cells EOS ([1]; Day 21, dose group 1): 0.00 X/uL
White Blood Cells LYMP + MONO ([1]; Day 21, dose group 1): 7243.33 X/uL
White Blood Cells NEUT ([1]; Day 21, dose group 1): 3126.67 X/uL
White Blood Cells WBC ([1]; Day 21, dose group 1): 11000 µL⁻¹
Others Het/Poly ([1]; Day 21, dose group 3): 29.67%
Red Blood Cells HCT ([1]; Day 21, dose group 3): 31.00%
White Blood Cells BASO ([1]; Day 21, dose group 3): 523.33 X/uL
White Blood Cells EOS ([1]; Day 21, dose group 3): 0.00 X/uL
White Blood Cells LYMP + MONO ([1]; Day 21, dose group 3): 6016.67 X/uL
White Blood Cells NEUT ([1]; Day 21, dose group 3): 2793.33 X/uL
White Blood Cells WBC ([1]; Day 21, dose group 3): 9330 µL⁻¹
Others Het/Poly ([1]; Day 21, dose group 20): 35.50%
Red Blood Cells HCT ([1]; Day 21, dose group 20): 31.50%
White Blood Cells BASO ([1]; Day 21, dose group 20): 850.00 X/uL
White Blood Cells EOS ([1]; Day 21, dose group 20): 0.00 X/uL
White Blood Cells LYMP + MONO ([1]; Day 21, dose group 20): 6530.00 X/uL
White Blood Cells NEUT ([1]; Day 21, dose group 20): 4120.00 X/uL
White Blood Cells WBC ([1]; Day 21, dose group 20): 11500 µL⁻¹
Others Het/Poly ([1]; Day 28, dose group 1): 56.33%
Red Blood Cells HCT ([1]; Day 28, dose group 1): 33.00%
White Blood Cells BASO ([1]; Day 28, dose group 1): 260.00 X/uL
White Blood Cells EOS ([1]; Day 28, dose group 1): 0.00 X/uL
White Blood Cells LYMP + MONO ([1]; Day 28, dose group 1): 2300.00 X/uL
White Blood Cells NEUT ([1]; Day 28, dose group 1): 4106.67 X/uL
White Blood Cells WBC ([1]; Day 28, dose group 1): 6670 µL⁻¹
Others Het/Poly ([1]; Day 28, dose group 3): 59.00%
Red Blood Cells HCT ([1]; Day 28, dose group 3): 29.67%
White Blood Cells BASO ([1]; Day 28, dose group 3): 450.00 X/uL
White Blood Cells EOS ([1]; Day 28, dose group 3): 0.00 X/uL
White Blood Cells LYMP + MONO ([1]; Day 28, dose group 3): 3216.67 X/uL
White Blood Cells NEUT ([1]; Day 28, dose group 3): 5000.00 X/uL
White Blood Cells WBC ([1]; Day 28, dose group 3): 8670 µL⁻¹
Others Het/Poly ([1]; Day 28, dose group 20): 44.00%
Red Blood Cells HCT ([1]; Day 28, dose group 20): 27.33%
White Blood Cells BASO ([1]; Day 28, dose group 20): 393.33 X/uL
White Blood Cells EOS ([1]; Day 28, dose group 20): 0.00 X/uL
White Blood Cells LYMP + MONO ([1]; Day 28, dose group 20): 3386.67 X/uL
White Blood Cells NEUT ([1]; Day 28, dose group 20): 3553.33 X/uL
White Blood Cells WBC ([1]; Day 28, dose group 20): 7330 µL⁻¹
Others Het/Poly ([1]; Day 35, dose group 1): 33.00%
Red Blood Cells HCT ([1]; Day 35, dose group 1): 29.67%
White Blood Cells BASO ([1]; Day 35, dose group 1): 386.67 X/uL
White Blood Cells EOS ([1]; Day 35, dose group 1): 0.00 X/uL
White Blood Cells LYMP + MONO ([1]; Day 35, dose group 1): 4026.67 X/uL
White Blood Cells NEUT ([1]; Day 35, dose group 1): 2253.33 X/uL
White Blood Cells WBC ([1]; Day 35, dose group 1): 6670 µL⁻¹
Others Het/Poly ([1]; Day 35, dose group 3): 31.00%
Red Blood Cells HCT ([1]; Day 35, dose group 3): 29.00%
White Blood Cells BASO ([1]; Day 35, dose group 3): 423.33 X/uL
White Blood Cells EOS ([1]; Day 35, dose group 3): 0.00 X/uL
White Blood Cells LYMP + MONO ([1]; Day 35, dose group 3): 4366.67 X/uL
White Blood Cells NEUT ([1]; Day 35, dose group 3): 2210.00 X/uL
White Blood Cells WBC ([1]; Day 35, dose group 3): 7000 µL⁻¹
Others Het/Poly ([1]; Day 35, dose group 20): 34.67%
Red Blood Cells HCT ([1]; Day 35, dose group 20): 25.50%
White Blood Cells BASO ([1]; Day 35, dose group 20): 393.33 X/uL
White Blood Cells EOS ([1]; Day 35, dose group 20): 0.00 X/uL
White Blood Cells LYMP + MONO ([1]; Day 35, dose group 20): 4323.33 X/uL
White Blood Cells NEUT ([1]; Day 35, dose group 20): 2283.33 X/uL
White Blood Cells WBC ([1]; Day 35, dose group 20): 7000 µL⁻¹
Others Het/Poly ([1]; Day 42, dose group 1): 31.33%
Red Blood Cells HCT ([1]; Day 42, dose group 1): 30.33%
White Blood Cells BASO ([1]; Day 42, dose group 1): 450.00 X/uL
White Blood Cells EOS ([1]; Day 42, dose group 1): 0.00 X/uL
White Blood Cells LYMP + MONO ([1]; Day 42, dose group 1): 6200.00 X/uL
White Blood Cells NEUT ([1]; Day 42, dose group 1): 3016.67 X/uL
White Blood Cells WBC ([1]; Day 42, dose group 1): 9670 µL⁻¹
Others Het/Poly ([1]; Day 42, dose group 3): 34.67%
Red Blood Cells HCT ([1]; Day 42, dose group 3): 29.33%
White Blood Cells BASO ([1]; Day 42, dose group 3): 466.67 X/uL
White Blood Cells EOS ([1]; Day 42, dose group 3): 0.00 X/uL
White Blood Cells LYMP + MONO ([1]; Day 42, dose group 3): 5760.00 X/uL
White Blood Cells NEUT ([1]; Day 42, dose group 3): 3106.67 X/uL
White Blood Cells WBC ([1]; Day 42, dose group 3): 9330 µL⁻¹
Others Het/Poly ([1]; Day 42, dose group 20): 35.00%
Red Blood Cells HCT ([1]; Day 42, dose group 20): 28.67%
White Blood Cells BASO ([1]; Day 42, dose group 20): 406.67 X/uL
White Blood Cells EOS ([1]; Day 42, dose group 20): 0.00 X/uL
White Blood Cells LYMP + MONO ([1]; Day 42, dose group 20): 4980.00 X/uL
White Blood Cells NEUT ([1]; Day 42, dose group 20): 3013.33 X/uL
White Blood Cells WBC ([1]; Day 42, dose group 20): 8670 µL⁻¹
Others Het/Poly ([1]; Day 49, dose group 1): 27.33%
Red Blood Cells HCT ([1]; Day 49, dose group 1): 29.00%
White Blood Cells BASO ([1]; Day 49, dose group 1): 213.33 X/uL
White Blood Cells EOS ([1]; Day 49, dose group 1): 40.00 X/uL
White Blood Cells LYMP + MONO ([1]; Day 49, dose group 1): 5766.67 X/uL
White Blood Cells NEUT ([1]; Day 49, dose group 1): 2646.67 X/uL
White Blood Cells WBC ([1]; Day 49, dose group 1): 8670 µL⁻¹
Others Het/Poly ([1]; Day 49, dose group 3): 34.33%
Red Blood Cells HCT ([1]; Day 49, dose group 3): 30.67%
White Blood Cells BASO ([1]; Day 49, dose group 3): 243.33 X/uL
White Blood Cells EOS ([1]; Day 49, dose group 3): 0.00 X/uL
White Blood Cells LYMP + MONO ([1]; Day 49, dose group 3): 5510.00 X/uL
White Blood Cells NEUT ([1]; Day 49, dose group 3): 2913.33 X/uL
White Blood Cells WBC ([1]; Day 49, dose group 3): 8670 µL⁻¹
Others Het/Poly ([1]; Day 49, dose group 20): 43.33%
Red Blood Cells HCT ([1]; Day 49, dose group 20): 30.33%
White Blood Cells BASO ([1]; Day 49, dose group 20): 296.67 X/uL
White Blood Cells EOS ([1]; Day 49, dose group 20): 0.00 X/uL
White Blood Cells LYMP + MONO ([1]; Day 49, dose group 20): 4483.33 X/uL
White Blood Cells NEUT ([1]; Day 49, dose group 20): 3553.33 X/uL
White Blood Cells WBC ([1]; Day 49, dose group 20): 8330 µL⁻¹
Substance: Candida utilis phosphoglucomannan-soy bean proteins [CUPS]
